Results reported in paper PMC9736855, “Discovery of 3-Amino-1H-pyrazole-Based Kinase Inhibitors to Illuminate the Understudied PCTAIRE Family” (International Journal of Molecular Sciences, 2022).
“And” between values parts separate entries of the source, which are not always exact repeats. Equal entries are not always repeated. “Also recorded” adds a separate entry of the source. Where two headings read alike, the source gives them in different places.

How the values were obtained:
MAPK14 = target: T1, MAPK14 (Homo sapiens, UniProt Q16539); test: DSF; type: binding
T1 construct: purchased in-house DSF panel (SGC Frankfurt)
Experimental: (§1) Recombinant protein kinase domains with a concentration of 2 μM were mixed with a 10 μM compound solution in DMSO, 20 mM HEPES, pH 7.5, and 500 mM NaCl. SYPRO Orange (5000×, Invitrogen) was added as a fluorescence probe (1 µl per mL). Subsequently, temperature-dependent protein unfolding profiles were measured, using the QuantStudio™ 5 realtime PCR machine (Thermo Fisher, Waltham, MA, USA). […] The temperature was raised with a step rate of 3 °C per minute. Data points were analyzed with the internal software (Thermal Shift SoftwareTM Version 1.4, Thermo Fisher) using the Boltzmann equation to determine the inflection point of the transition curve [56]. Differences in melting temperature are given as ΔTm values in °C. Measurements were performed in duplicates.

MAPK15 = target: T2, MAPK15 (Homo sapiens, UniProt Q8TD08); test: DSF; type: binding
T2 construct: purchased in-house DSF panel (SGC Frankfurt)
T2 sequence (Q8TD08 1-346): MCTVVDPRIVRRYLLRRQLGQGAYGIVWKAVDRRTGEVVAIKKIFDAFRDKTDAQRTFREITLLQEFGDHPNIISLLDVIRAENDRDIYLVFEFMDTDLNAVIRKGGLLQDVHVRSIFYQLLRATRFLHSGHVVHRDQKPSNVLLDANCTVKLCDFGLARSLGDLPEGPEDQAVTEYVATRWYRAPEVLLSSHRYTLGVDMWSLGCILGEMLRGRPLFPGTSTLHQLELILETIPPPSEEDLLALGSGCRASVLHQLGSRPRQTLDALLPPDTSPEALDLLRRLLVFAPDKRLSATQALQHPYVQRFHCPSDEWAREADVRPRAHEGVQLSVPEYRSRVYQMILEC
Experimental: as §1

STK17A = target: T3, STK17A (Homo sapiens, UniProt Q9UEE5); test: DSF; type: binding
T3 construct: purchased in-house DSF panel (SGC Frankfurt)
T3 sequence (Q9UEE5 61-321): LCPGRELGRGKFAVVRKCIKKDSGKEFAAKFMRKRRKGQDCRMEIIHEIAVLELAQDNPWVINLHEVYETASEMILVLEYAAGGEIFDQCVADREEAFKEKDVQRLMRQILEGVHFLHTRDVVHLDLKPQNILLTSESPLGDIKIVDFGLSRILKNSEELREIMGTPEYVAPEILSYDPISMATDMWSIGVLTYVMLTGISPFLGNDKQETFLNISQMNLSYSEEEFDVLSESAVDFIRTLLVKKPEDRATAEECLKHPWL
Experimental: as §1

STK38L = target: T4, STK38L (Homo sapiens, UniProt Q9Y2H1); test: DSF; type: binding
T4 construct: purchased in-house DSF panel (SGC Frankfurt)
Experimental: as §1

CDK16/Cyclin Y = target: T5, CDK16/Cyclin Y (Homo sapiens, UniProt Q00536); test: NanoBRET; type: cell-based
T5 construct: Full-length kinases were obtained as plasmids cloned in frame with a terminal NanoLuc-fusion; CS1810C178 (CCNY); host or cells: HEK293T
In short: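 HEK293T cells transiently expressing full-length NanoLuc-fused kinase for 20 h, treated with serially diluted inhibitor plus tracer at its KD,app. Equilibrated 2 h at 37 °C/5% CO2 before reading BRET (450/610 nm). EC50 from tracer displacement by normalized 3-parameter fit.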

HCT116-FUCCI cells = test: FUCCI cell cycle assay and viability assessment; type: cell-based; conditions: for effect on the cell cycle (FUCCI): 1, 5, 10 µM (milciclib 1, 10 µM); for effect on the cell cycle (FUCCI) / pyknosed nuclei: 24 h; for pyknosed nuclei: average; for effect on cell count: 1, 5, 10 µM vs DMSO 0.1 %; for cells compared to the control: after 72 h, vs DMSO 0.1 %
Experimental: This technology enables the detection of cell cycle states (G1, G2/M, or S phase) on a single cell level. Additionally, a viability assessment, as described by Tjaden et. al., was performed using Hoechst33342 as a nuclear marker. […] At 10 µM of the same compound, the pyknosed nuclei rate was even higher, on average 45% (Figure 9C). An increase in cells including a pyknosed nucleus indicate apoptotic cell death, due to typical morphological changes like DNA condensation. […] Milciclib is a published CDK2 inhibitor and was used as a reference compound [55]. […] At later time points, the G2/M phase arrest was no longer detectable (Table S7). This can be explained due to the increasing amount of apoptotic cells.
To validate the influence of the compounds on the cell cycle, a florescent ubiquitination-based cell cycle indicator (FUCCI) assay was performed as described previously. In Brief, HCT116-FUCCI cells, stably expressing the FUCCI system, introduced by the Sleeping Beauty transposon system, were seeded at a density of 1250 cells per well in a 384 well plate (Cell culture microplate, PS, f-bottom, µClear®, 781091, Greiner, Frickenhausen, Germany) in culture medium (50 µL per well) and stained additionally with 60 nM Hoechst33342 (Thermo Scientific). Fluorescence and cellular shape were measured before and after compound treatment for 72 h every 12 h using the CQ1 high-content confocal microscope (Yokogawa, Tokyo, Japan). Compounds were added directly to the cells at three different concentrations (1 µM, 5 µM and 10 µM). The following parameters were used for image acquisition: Ex 405 nm/Em 447/60 nm, 500ms, 50%; Ex 561 nm/Em 617/73 nm, 100 ms, 40%; Ex 488/Em 525/50 nm, 50 ms, 40%; Ex 640 nm/Em 685/40, 50 ms, 20 %; bright field, 300ms, 100% transmission, one centered field per well, 7 z stacks per well with 55 µm spacing. Analysis of images was performed using the CellPathfinder software (Yokogawa). The cell count was normalized against the cell count of cells treated with 0.1% DMSO. All normal gated cells were further classified in cells containing healthy, fragmented or pyknosed nuclei. […] Error bars show SEM of biological duplicates. All data can be found in Table S7.

[1] = Figure 7, 11-point dose-response in duplicates, read-out: NanoBRET EC50 ± SEM against CDK16

T1 sequence (Q16539 whole entry): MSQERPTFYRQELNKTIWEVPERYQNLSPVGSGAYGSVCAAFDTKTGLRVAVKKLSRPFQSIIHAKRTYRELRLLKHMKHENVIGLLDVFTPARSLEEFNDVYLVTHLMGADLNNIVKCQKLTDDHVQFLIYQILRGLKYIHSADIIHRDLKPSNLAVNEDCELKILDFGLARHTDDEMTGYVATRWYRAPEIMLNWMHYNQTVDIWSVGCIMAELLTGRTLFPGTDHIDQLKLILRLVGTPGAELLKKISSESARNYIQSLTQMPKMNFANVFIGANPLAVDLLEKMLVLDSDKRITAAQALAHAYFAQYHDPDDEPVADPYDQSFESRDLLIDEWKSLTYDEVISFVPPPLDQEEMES
T5 sequence (Q00536 whole entry, the tested form may be a part): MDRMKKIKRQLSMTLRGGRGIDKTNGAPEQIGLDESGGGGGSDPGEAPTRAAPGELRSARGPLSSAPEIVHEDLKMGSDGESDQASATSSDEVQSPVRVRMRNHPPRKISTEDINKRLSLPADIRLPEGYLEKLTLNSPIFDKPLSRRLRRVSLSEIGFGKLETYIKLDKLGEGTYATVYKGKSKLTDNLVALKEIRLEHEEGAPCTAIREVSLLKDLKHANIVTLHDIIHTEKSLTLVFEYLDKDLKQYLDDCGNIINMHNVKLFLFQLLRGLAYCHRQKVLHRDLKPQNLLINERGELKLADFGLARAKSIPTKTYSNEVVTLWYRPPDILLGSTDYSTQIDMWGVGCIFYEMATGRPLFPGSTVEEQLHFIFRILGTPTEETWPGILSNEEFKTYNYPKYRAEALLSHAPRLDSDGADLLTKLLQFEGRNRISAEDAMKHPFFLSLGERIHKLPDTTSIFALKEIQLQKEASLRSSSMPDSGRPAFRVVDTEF
T5 sequence (Q8ND76 2-341 partner limits assumed): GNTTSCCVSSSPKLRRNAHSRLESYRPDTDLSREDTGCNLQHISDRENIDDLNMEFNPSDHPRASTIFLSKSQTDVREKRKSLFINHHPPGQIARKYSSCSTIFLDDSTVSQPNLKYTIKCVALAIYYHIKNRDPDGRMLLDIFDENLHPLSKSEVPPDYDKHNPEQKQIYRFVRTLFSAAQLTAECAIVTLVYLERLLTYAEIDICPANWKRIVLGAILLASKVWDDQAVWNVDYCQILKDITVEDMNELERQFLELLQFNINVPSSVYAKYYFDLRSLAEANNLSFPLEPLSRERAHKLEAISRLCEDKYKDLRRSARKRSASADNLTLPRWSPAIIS
T4 sequence (Q9Y2H1 90-453): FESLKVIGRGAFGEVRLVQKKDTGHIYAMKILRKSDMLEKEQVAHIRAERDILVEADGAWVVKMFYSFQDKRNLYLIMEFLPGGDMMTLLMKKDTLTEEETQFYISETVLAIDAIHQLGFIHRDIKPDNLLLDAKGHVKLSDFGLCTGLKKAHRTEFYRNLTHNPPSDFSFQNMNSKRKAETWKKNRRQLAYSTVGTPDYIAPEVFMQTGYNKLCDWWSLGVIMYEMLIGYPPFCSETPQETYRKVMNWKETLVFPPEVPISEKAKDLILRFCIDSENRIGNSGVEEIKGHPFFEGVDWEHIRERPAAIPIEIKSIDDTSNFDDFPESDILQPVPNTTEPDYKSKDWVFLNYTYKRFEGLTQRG

In the case of `COC(=O)c1cc(Nc2ccnc(NCCOCCNC(=O)OC(C)(C)C)n2)[nH]n1` [21d, methyl 5-((2-((2-(2-((tert-butoxycarbonyl)amino)ethoxy)ethyl)amino)pyrimidin-4-yl)amino)-1H-pyrazole-3-carboxylate], the “ΔTm MAPK14” value (MAPK14) is reported as -0.3 °C, the “ΔTm MAPK15” value (MAPK15) is reported as 4.1 °C and the “ΔTm STK17A” value (STK17A) is reported as 2.2 °C. The “ΔTm STK38L” value (STK38L) was 1.2 °C and the EC50 (CDK16/Cyclin Y; [1]) was 1.37 ± 0.306 µM.

For `N#CCc1ccc(Nc2nccc(Nc3cc(C4CC4)[nH]n3)n2)cc1` [compound 1, reference compound], the “ΔTm MAPK14” value (MAPK14) was 2.5 °C, the “ΔTm MAPK15” value (MAPK15) was 17.4 °C and the “ΔTm STK17A” value (STK17A) was 9.6 °C. For the same molecule, the “ΔTm STK38L” value (STK38L) was 8.7 °C, the EC50 (CDK16/Cyclin Y; CDK family profiling, Table S5, read-out: NanoBRET EC50 ± SEM CDK16/Cyclin Y) was 0.0146 ± 0.0055 µM and the “effect on the cell cycle (FUCCI)” value (HCT116-FUCCI cells) was “no effect on the cell cycle”.

`CC(C)(C)OC(=O)Nc1ccc(CNc2nccc(Nc3cc(C(=O)OC(C)(C)C)[nH]n3)n2)cc1` [43d, tert-butyl 3-((2-((4-((tert-butoxycarbonyl)amino)benzyl)amino)pyrimidin-4-yl)amino)-1H-pyrazole-5-carboxylate] was tested, and the “ΔTm MAPK14” value (MAPK14) was -0.3 °C, the “ΔTm MAPK15” value (MAPK15) was 5.8 °C and the “ΔTm STK17A” value (STK17A) was -0.6 °C. For the same molecule, the “ΔTm STK38L” value (STK38L) was 0.0 °C, the EC50 (CDK16/Cyclin Y; [1]) was 0.033 µM and 0.0334 µM and the pyknosed nuclei (HCT116-FUCCI cells; 1 µM) was 10%. The pyknosed nuclei (HCT116-FUCCI cells; 10 µM) was 45%, the “effect on the cell cycle (FUCCI)” value (HCT116-FUCCI cells) was “G2/M phase cell cycle arrest; also recorded: accumulation of cells in G2/M phases” and the “effect on cell count” value (HCT116-FUCCI cells) was “decreased the cell count in a dose-dependent manner”. The “cells compared to the control” value (HCT116-FUCCI cells) was “less than 50%”.

For `COC(=O)c1cc(Nc2ccnc(NCc3ccc(NC(=O)OC(C)(C)C)cc3)n2)[nH]n1` [21i, methyl 5-((2-((4-((tert-butoxycarbonyl)amino)benzyl)amino)pyrimidin-4-yl)amino)-1H-pyrazole-3-carboxylate], the “ΔTm MAPK14” value (MAPK14) was -0.6 °C, the “ΔTm MAPK15” value (MAPK15) was 5.9 °C and the “ΔTm STK17A” value (STK17A) was -0.1 °C. The “ΔTm STK38L” value (STK38L) was 0.9 °C, the EC50 (CDK16/Cyclin Y; [1]) was 0.38 µM and the “effect on the cell cycle (FUCCI)” value (HCT116-FUCCI cells) was “accumulation of cells in G2/M phases”. For the same molecule, the “effect on cell count” value (HCT116-FUCCI cells) was “decreased the cell count” and the “cells compared to the control” value (HCT116-FUCCI cells) was “less than 50%”.

With `CC(C)OC(=O)c1cc(Nc2ccnc(NCc3ccc(NC(=O)OC(C)(C)C)cc3)n2)n[nH]1` [42d, isopropyl 3-((2-((4-((tert-butoxycarbonyl)amino)benzyl)amino)pyrimidin-4-yl)amino)-1H-pyrazole-5-carboxylate] the “ΔTm MAPK14” value (MAPK14) was -0.5 °C, the “ΔTm MAPK15” value (MAPK15) was 7.0 °C and the “ΔTm STK17A” value (STK17A) was -0.4 °C. For the same molecule, the “ΔTm STK38L” value (STK38L) was 0.0 °C, the EC50 (CDK16/Cyclin Y; [1]) was 0.044 µM and the “effect on the cell cycle (FUCCI)” value (HCT116-FUCCI cells) was “accumulation of cells in G2/M phases”.
